According to patent publication US11090349B2, “Plant extract obtained from Morus plant leaves, compositions containing same, method of extraction and uses thereof” (Botanic Century (Beijing) Co. Ltd., priority 2009, dated 2021):

Tests used:
[1] = molecular target: T1, tyrosinase (Mus musculus, UniProt P11344); test: Direct effect on tyrosinase catalytic activity in B16 cell extract; type: biochemical; details: incubated 1 hour at 37° C., L-dopa
T1 construct: supernatant (cell extract) containing the cellular components being retained for assay purposes; endogenous in cells; host or cells: B16 melanoma cells
T1 sequence (P11344 19-533): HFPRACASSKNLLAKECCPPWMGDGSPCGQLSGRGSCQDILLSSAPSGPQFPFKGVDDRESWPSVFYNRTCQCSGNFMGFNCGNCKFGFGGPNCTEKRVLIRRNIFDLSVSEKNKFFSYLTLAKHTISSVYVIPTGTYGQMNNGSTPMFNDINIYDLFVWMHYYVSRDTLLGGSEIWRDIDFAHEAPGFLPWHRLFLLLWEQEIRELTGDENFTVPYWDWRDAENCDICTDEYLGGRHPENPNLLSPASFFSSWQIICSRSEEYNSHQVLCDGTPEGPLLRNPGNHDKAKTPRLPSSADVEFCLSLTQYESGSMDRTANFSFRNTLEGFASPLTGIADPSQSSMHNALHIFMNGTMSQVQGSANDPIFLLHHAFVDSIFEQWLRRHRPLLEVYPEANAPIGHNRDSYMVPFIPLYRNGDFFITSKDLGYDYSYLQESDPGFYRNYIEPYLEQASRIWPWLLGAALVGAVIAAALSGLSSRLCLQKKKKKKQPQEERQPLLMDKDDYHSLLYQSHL
Protocol: (§1) The aim was to investigate the impact and mechanisms of action of the test samples on the TYR activity in melanoma cell line B16.
(§2) B16 melanoma cells were washed with phosphate-buffered saline and collected in a centrifuge tube. After centrifugation, WIP-lysis buffer containing phenyl-methylsulfonyl fluoride (PMSF) was added to the cell pellet to lyse the cells and the solution was left to stand on ice for 30 minutes. The solution was subsequently centrifuged for 10 min, at 12000 g, at 4° C., with the supernatant (cell extract) containing the cellular components being retained for assay purposes.
The plate was incubated at 37° C. for 1 hour, and then 80 μl L-dopa was added to each well. The absorbance (492 nm) of each well was recorded at 5 minute intervals for 30 minutes at 37° C. using a microplate reader.

[2] = tested on: tyrosinase; test: Indirect effect on tyrosinase activity, B16 cells cultured with sample for three days; type: cell-based; details: B16 cells incubated three days with test compound before extraction
Protocol: as §1, §2

[3] = tested on: B16 melanoma cells; test: Melanin content in B16 melanoma cells; type: cell-based; details: different concentrations
Protocol: The aim was to investigate the impact of the test samples on melanin content of melanoma cell line B16. […] The method was as set out below: • 1. Harvest the melanoma B16 cells at Log phase and adjust the cell suspension to an appropriate concentration, divide into 24 well plates and allow the cells to adhere to the walls. • 2. […] Add 250 μl WIP lysis buffer and allow to lyse in an ice bath, vortex mixing once every 5 min for 4-5 times. • 4. Centrifuge for 10 min at 12000 rpm at 4° C. Discard the supernatant and dissolve the precipitate with 400 μl 1N NaOH and keep it in a 80° C. water bath for 1 hour. • 5. Use a microplate reader to measure OD value at 405 nm, and calculate the relative content. Results and discussion: The B16 melanoma cells were seeded at a density of 4×10^4 cell per well of 24-well culture plates, incubated at 37° C. under 5% CO2 atmosphere for 24 h. […] The cells were washed with phosphate-buffered saline, collected in centrifuge tube. After centrifugation, cell pellets were disrupted in WIP lysis buffer containing phenylmethylsulfonyl fluoride (PMSF) on ice for 30 min. The solution was centrifuged for 10 min at 12000 g at 4° C., the pellets were dissolved in 1N NaOH by boiling for 1 h at 70° C. The melanin content was assayed at 405 nm in a spectrophotometer.

[4] = tested on: B16 melanoma cells; test: Cell viability, MTT assay; type: cell-based; details: for growth inhibition of B16 melanoma cells (MTT): below the concentration of 200 ppm
Protocol: Cell survival was measured using the MTT assay, which is based on the conversion of 3-(4,5-dimethylthiazol-2-yl)-2,5-diphenyltetrazolium bromide to MTT-formazan crystal by mitochondrial enzyme in viable cells. MTT was freshly prepared at 2 mg/ml in phosphate-buffered saline (PBS). […] Aliquots of 20 μl of MTT stock solution were added to the well at different time points throughout the experiment, and the plate was incubated at 37° C. for 4 h in a humidified 5% CO2 incubator. After 4 h, the formazan crystals of these cells were solubilized in 100 μl DMSO by gentle shaking. After 10 min, the amount of formazan was quantified spectrophotometrically using an ELISA plate reader at 540 nm.

[5] = tested on: Wistar rats; test: Blood glucose of Wistar rats after starch meal; type: in vivo, Wistar rat; details: positive control 25 mg/kg
Protocol: The reagents and apparatus are set out below: • (1) Mulberry leaf extract of Example 1 • (2) Saline • (3) Miglitol standard reference chemical • (4) 64 Wistar rats • (5) Johnson's One Touch Ultra blood glucose meter and Code 9 blood glucose test strips The method used was as set out below:
Animals received Morus extract via intraperitoneal injection (15 mg/kg or 30 mg/kg) or intragastrically (25 mg/kg or 50 mg/kg). Miglitol (Glyset®) (25 mg/kg), an α-glucosidase inhibitor approved for type-2 diabetes was used as a positive control. Fasted blood-sugar levels were recorded as a baseline, and blood sugar levels were measured at time intervals 05.hr, 1 hr and 2 hrs after receiving a starch meal. The animals were dosed with Morus extract prior to receiving the starch meal.

SMILES | direct effect on tyrosinase activity [1] | indirect effect on tyrosinase activity [2] | content of melanin compared to the control [3] | growth inhibition of B16 melanoma cells (MTT) [4] | Blood glucose 0.5 h after giving starch [5] [mmol/L] | Blood glucose 1 h after giving starch [5] [mmol/L] | Blood glucose 2 h after giving starch [5] [mmol/L] | Fasted Glucose ([5]; baseline) [mmol/L] | concentration above which viability of the cell decreased ([4]; B16 melanoma cell)
OCC1NCC(O)C(O)C1O (stereo not shown) [DNJ, 1-deoxynojirimycin] | no effect on tyrosinase activity | dose-dependent decrease in tyrosinase activity | decreased significantly in a dose-dependent manner | no growth inhibition |  |  |  |  | 
OCCN1C[C@H](O)[C@@H](O)[C@H](O)[C@H]1CO [Miglitol] |  |  |  |  | 2.27 ± 0.71 | 2.98 ± 0.52 | 2.69 ± 0.35 | 3.04 ± 0.74 | 
O=C1O[C@H]([C@@H](O)CO)C([O-])=C1OP(=O)([O-])[O-].O=C1O[C@H]([C@@H](O)CO)C([O-])=C1OP(=O)([O-])[O-].[Mg+2].[Mg+2].[Mg+2] [VC-PMG, magnesium L-ascorbyl-2-phosphate] |  |  | decreased significantly in a dose-dependent manner | no growth inhibition |  |  |  |  | over 200 ppm
OC[C@H]1O[C@@H](Oc2ccc(O)cc2)[C@H](O)[C@@H](O)[C@@H]1O [arbutin] | reduced the activity of tyrosinase in a dose-dependent manner | no effect on tyrosinase activity |  |  |  |  |  |  | 
